Measured values as given in the NIST ThermoML archive (doi:10.1007/s10765-008-0482-1).
Values joined by “and” are separate entries in the source; they are usually repeats but may differ in a detail not shown here. Equal entries are not always repeated. ± gives the expanded uncertainty stated by the source.

Test: xn = mol fraction of the nth substance listed
Details: Fluid (supercritical or subcritical phases), Parallel plate method

**Q.** What does the source list for `CC` [ethane] + O=C=O?
**A.** thermal conductivity (296.64 K, Amount density=7450 mol/m3, x2 = 0.25): 0.186 ± 0.004 W/m/K; thermal conductivity (296.65 K, Amount density=7450 mol/m3, x2 = 0.25): 0.183 ± 0.0046 W/m/K; thermal conductivity (296.66 K, Amount density=6830 mol/m3, x2 = 0.25): 0.138 ± 0.0071 W/m/K; thermal conductivity (296.69 K, Amount density=7450 mol/m3, x2 = 0.25): 0.186 ± 0.007 W/m/K; thermal conductivity (296.7 K, Amount density=6870 mol/m3, x2 = 0.25): 0.177 ± 0.0062 W/m/K and 0.188 ± 0.0066 W/m/K; thermal conductivity (296.7 K, Amount density=7450 mol/m3, x2 = 0.25): 0.154 ± 0.0055 W/m/K; thermal conductivity (296.71 K, Amount density=6870 mol/m3, x2 = 0.25): 0.214 ± 0.011 W/m/K; thermal conductivity (296.71 K, Amount density=7450 mol/m3, x2 = 0.25): 0.175 ± 0.0048 W/m/K; thermal conductivity (296.72 K, Amount density=7450 mol/m3, x2 = 0.25): 0.164 ± 0.0049 W/m/K and 0.166 ± 0.0049 W/m/K; thermal conductivity (296.73 K, Amount density=6870 mol/m3, x2 = 0.25): 0.195 ± 0.0069 W/m/K; thermal conductivity (296.74 K, Amount density=6830 mol/m3, x2 = 0.25): 0.199 ± 0.0086 W/m/K; thermal conductivity (296.74 K, Amount density=7450 mol/m3, x2 = 0.25): 0.145 ± 0.006 W/m/K; thermal conductivity (296.75 K, Amount density=6870 mol/m3, x2 = 0.25): 0.204 ± 0.0065 W/m/K; thermal conductivity (296.75 K, Amount density=7450 mol/m3, x2 = 0.25): 0.157 ± 0.0052 W/m/K; thermal conductivity (296.76 K, Amount density=6870 mol/m3, x2 = 0.25): 0.189 ± 0.0063 W/m/K; thermal conductivity (296.77 K, Amount density=6870 mol/m3, x2 = 0.25): 0.195 ± 0.0096 W/m/K; thermal conductivity (296.79 K, Amount density=6830 mol/m3, x2 = 0.25): 0.218 ± 0.0052 W/m/K; thermal conductivity (296.8 K, Amount density=6870 mol/m3, x2 = 0.25): 0.168 ± 0.014 W/m/K; thermal conductivity (296.8 K, Amount density=8450 mol/m3, x2 = 0.25): 0.0921 ± 0.0024 W/m/K; thermal conductivity (296.82 K, Amount density=6710 mol/m3, x2 = 0.26): 0.118 ± 0.013 W/m/K; thermal conductivity (296.83 K, Amount density=6870 mol/m3, x2 = 0.25): 0.157 ± 0.009 W/m/K; thermal conductivity (296.84 K, Amount density=6710 mol/m3, x2 = 0.26): 0.111 ± 0.0037 W/m/K; thermal conductivity (296.84 K, Amount density=6830 mol/m3, x2 = 0.25): 0.142 ± 0.012 W/m/K; thermal conductivity (296.85 K, Amount density=5680 mol/m3, x2 = 0.25): 0.0729 ± 0.0021 W/m/K; thermal conductivity (296.86 K, Amount density=2940 mol/m3, x2 = 0.25): 0.0306 ± 0.0015 W/m/K; thermal conductivity (296.87 K, Amount density=877 mol/m3, x2 = 0.26): 0.0217 ± 0.0013 W/m/K; thermal conductivity (296.87 K, Amount density=6710 mol/m3, x2 = 0.26): 0.11 ± 0.0037 W/m/K; thermal conductivity (296.88 K, Amount density=446 mol/m3, x2 = 0.25): 0.021 ± 0.0013 W/m/K; thermal conductivity (296.88 K, Amount density=7450 mol/m3, x2 = 0.25): 0.145 ± 0.0039 W/m/K; thermal conductivity (296.88 K, Amount density=7490 mol/m3, x2 = 0.25): 0.139 ± 0.0033 W/m/K; thermal conductivity (297.16 K, Amount density=3090 mol/m3, x2 = 0.26): 0.0313 ± 0.0015 W/m/K; thermal conductivity (297.44 K, Amount density=8450 mol/m3, x2 = 0.25): 0.0821 ± 0.0022 W/m/K; thermal conductivity (297.46 K, Amount density=5680 mol/m3, x2 = 0.25): 0.0677 ± 0.002 W/m/K; thermal conductivity (297.46 K, Amount density=6830 mol/m3, x2 = 0.25): 0.11 ± 0.0027 W/m/K and 0.102 ± 0.0026 W/m/K; thermal conductivity (297.47 K, Amount density=2940 mol/m3, x2 = 0.25): 0.0305 ± 0.0015 W/m/K; thermal conductivity (297.47 K, Amount density=6830 mol/m3, x2 = 0.25): 0.102 ± 0.0026 W/m/K; thermal conductivity (297.48 K, Amount density=7490 mol/m3, x2 = 0.25): 0.111 ± 0.0027 W/m/K; thermal conductivity (297.5 K, Amount density=10780 mol/m3, x2 = 0.25): 0.0671 ± 0.002 W/m/K; thermal conductivity (297.52 K, Amount density=446 mol/m3, x2 = 0.25): 0.021 ± 0.0013 W/m/K; thermal conductivity (298.49 K, Amount density=9120 mol/m3, x2 = 0.74): 0.06 ± 0.0019 W/m/K; thermal conductivity (298.69 K, Amount density=6870 mol/m3, x2 = 0.25): 0.169 ± 0.0035 W/m/K; thermal conductivity (298.95 K, Amount density=7450 mol/m3, x2 = 0.25): 0.081 ± 0.003 W/m/K; thermal conductivity (298.99 K, Amount density=5680 mol/m3, x2 = 0.25): 0.0623 ± 0.0019 W/m/K; thermal conductivity (298.99 K, Amount density=6830 mol/m3, x2 = 0.25): 0.0779 ± 0.0068 W/m/K; thermal conductivity (298.99 K, Amount density=7490 mol/m3, x2 = 0.25): 0.0811 ± 0.003 W/m/K; thermal conductivity (298.99 K, Amount density=10780 mol/m3, x2 = 0.25): 0.0684 ± 0.002 W/m/K; thermal conductivity (299 K, Amount density=2940 mol/m3, x2 = 0.25): 0.0305 ± 0.0015 W/m/K; thermal conductivity (299.01 K, Amount density=446 mol/m3, x2 = 0.25): 0.0211 ± 0.0013 W/m/K; thermal conductivity (299.01 K, Amount density=6630 mol/m3, x2 = 0.74): 0.0467 ± 0.0017 W/m/K; thermal conductivity (299.02 K, Amount density=446 mol/m3, x2 = 0.25): 0.0212 ± 0.0013 W/m/K; thermal conductivity (301.91 K, Amount density=7730 mol/m3, x2 = 0.5): 0.0493 ± 0.0017 W/m/K; thermal conductivity (301.93 K, Amount density=6710 mol/m3, x2 = 0.26): 0.0624 ± 0.0019 W/m/K; thermal conductivity (301.95 K, Amount density=7530 mol/m3, x2 = 0.5): 0.0505 ± 0.0018 W/m/K; thermal conductivity (301.96 K, Amount density=6960 mol/m3, x2 = 0.5): 0.0531 ± 0.0018 W/m/K; thermal conductivity (301.98 K, Amount density=435 mol/m3, x2 = 0.5): 0.0203 ± 0.0013 W/m/K; thermal conductivity (302 K, Amount density=6830 mol/m3, x2 = 0.25): 0.0658 ± 0.002 W/m/K; thermal conductivity (302.01 K, Amount density=877 mol/m3, x2 = 0.26): 0.0222 ± 0.0013 W/m/K; thermal conductivity (302.01 K, Amount density=2940 mol/m3, x2 = 0.5): 0.0281 ± 0.0014 W/m/K; thermal conductivity (302.02 K, Amount density=446 mol/m3, x2 = 0.25): 0.0214 ± 0.0013 W/m/K; thermal conductivity (302.02 K, Amount density=5680 mol/m3, x2 = 0.25): 0.056 ± 0.0018 W/m/K; thermal conductivity (302.04 K, Amount density=2940 mol/m3, x2 = 0.25): 0.0307 ± 0.0015 W/m/K; thermal conductivity (302.04 K, Amount density=6830 mol/m3, x2 = 0.25): 0.0658 ± 0.002 W/m/K; thermal conductivity (302.05 K, Amount density=8450 mol/m3, x2 = 0.25): 0.0676 ± 0.002 W/m/K; thermal conductivity (302.06 K, Amount density=7490 mol/m3, x2 = 0.25): 0.0699 ± 0.002 W/m/K; thermal conductivity (302.11 K, Amount density=3090 mol/m3, x2 = 0.26): 0.0311 ± 0.0015 W/m/K; thermal conductivity (302.25 K, Amount density=6630 mol/m3, x2 = 0.74): 0.0436 ± 0.0017 W/m/K; thermal conductivity (302.43 K, Amount density=5650 mol/m3, x2 = 0.5): 0.0436 ± 0.0017 W/m/K; thermal conductivity (307.99 K, Amount density=2940 mol/m3, x2 = 0.5): 0.0279 ± 0.0014 W/m/K; thermal conductivity (308 K, Amount density=7730 mol/m3, x2 = 0.5): 0.0462 ± 0.0017 W/m/K; thermal conductivity (308.01 K, Amount density=6830 mol/m3, x2 = 0.25): 0.0567 ± 0.0019 W/m/K; thermal conductivity (308.02 K, Amount density=6960 mol/m3, x2 = 0.5): 0.0468 ± 0.0017 W/m/K; thermal conductivity (308.02 K, Amount density=7490 mol/m3, x2 = 0.25): 0.0614 ± 0.0019 W/m/K; thermal conductivity (308.03 K, Amount density=7530 mol/m3, x2 = 0.5): 0.0469 ± 0.0017 W/m/K; thermal conductivity (308.06 K, Amount density=5650 mol/m3, x2 = 0.5): 0.041 ± 0.0016 W/m/K; thermal conductivity (308.06 K, Amount density=7450 mol/m3, x2 = 0.25): 0.0646 ± 0.002 W/m/K; thermal conductivity (308.06 K, Amount density=9120 mol/m3, x2 = 0.74): 0.0485 ± 0.0017 W/m/K; thermal conductivity (308.07 K, Amount density=435 mol/m3, x2 = 0.5): 0.0207 ± 0.0013 W/m/K; thermal conductivity (308.07 K, Amount density=446 mol/m3, x2 = 0.25): 0.0219 ± 0.0013 W/m/K; thermal conductivity (308.09 K, Amount density=435 mol/m3, x2 = 0.5): 0.0207 ± 0.0013 W/m/K; thermal conductivity (308.1 K, Amount density=877 mol/m3, x2 = 0.26): 0.0228 ± 0.0013 W/m/K; thermal conductivity (308.12 K, Amount density=10780 mol/m3, x2 = 0.25): 0.0659 ± 0.002 W/m/K; thermal conductivity (308.15 K, Amount density=2940 mol/m3, x2 = 0.25): 0.031 ± 0.0015 W/m/K; thermal conductivity (308.16 K, Amount density=3090 mol/m3, x2 = 0.26): 0.0314 ± 0.0015 W/m/K; thermal conductivity (308.18 K, Amount density=6630 mol/m3, x2 = 0.74): 0.0413 ± 0.0016 W/m/K; thermal conductivity (308.18 K, Amount density=6710 mol/m3, x2 = 0.26): 0.054 ± 0.0018 W/m/K; thermal conductivity (308.23 K, Amount density=8450 mol/m3, x2 = 0.25): 0.0617 ± 0.0019 W/m/K; thermal conductivity (308.7 K, Amount density=5680 mol/m3, x2 = 0.25): 0.0516 ± 0.0018 W/m/K; thermal conductivity (318.04 K, Amount density=9120 mol/m3, x2 = 0.74): 0.0354 ± 0.0015 W/m/K; thermal conductivity (318.11 K, Amount density=435 mol/m3, x2 = 0.5): 0.0218 ± 0.0013 W/m/K; thermal conductivity (318.11 K, Amount density=6630 mol/m3, x2 = 0.74): 0.0382 ± 0.0016 W/m/K; thermal conductivity (318.12 K, Amount density=7530 mol/m3, x2 = 0.5): 0.0445 ± 0.0017 W/m/K; thermal conductivity (318.13 K, Amount density=5650 mol/m3, x2 = 0.5): 0.0411 ± 0.0016 W/m/K; thermal conductivity (318.13 K, Amount density=6960 mol/m3, x2 = 0.5): 0.0425 ± 0.0016 W/m/K; thermal conductivity (318.13 K, Amount density=7490 mol/m3, x2 = 0.25): 0.0559 ± 0.0018 W/m/K; thermal conductivity (318.13 K, Amount density=7730 mol/m3, x2 = 0.5): 0.0403 ± 0.0016 W/m/K; thermal conductivity (318.14 K, Amount density=2940 mol/m3, x2 = 0.5): 0.0293 ± 0.0014 W/m/K; thermal conductivity (318.14 K, Amount density=6830 mol/m3, x2 = 0.25): 0.0532 ± 0.0018 W/m/K; thermal conductivity (318.14 K, Amount density=10780 mol/m3, x2 = 0.25): 0.065 ± 0.002 W/m/K; thermal conductivity (318.15 K, Amount density=446 mol/m3, x2 = 0.25): 0.0232 ± 0.0013 W/m/K; thermal conductivity (318.15 K, Amount density=5650 mol/m3, x2 = 0.5): 0.0398 ± 0.0016 W/m/K; thermal conductivity (318.16 K, Amount density=2940 mol/m3, x2 = 0.25): 0.0316 ± 0.0015 W/m/K; thermal conductivity (318.16 K, Amount density=8450 mol/m3, x2 = 0.25): 0.049 ± 0.0017 W/m/K; thermal conductivity (318.17 K, Amount density=3090 mol/m3, x2 = 0.26): 0.0318 ± 0.0015 W/m/K; thermal conductivity (318.19 K, Amount density=877 mol/m3, x2 = 0.26): 0.0236 ± 0.0014 W/m/K; thermal conductivity (318.21 K, Amount density=6710 mol/m3, x2 = 0.26): 0.0503 ± 0.0018 W/m/K; thermal conductivity (318.27 K, Amount density=5680 mol/m3, x2 = 0.25): 0.0481 ± 0.0017 W/m/K
